Test results published in patent US9029399B2, “17α-hydroxylase/C17,20-lyase inhibitors” (Novartis AG, priority 2011, dated 2015).

How the values were obtained:
[1] = target: Human CYP17 enzyme (Cytochrome P450, 17-20 lyase) (Homo sapiens (Human), UniProt P05093); assay: CYP17 lyase assay, recombinant human CYP17 enzyme, 17-α-hydroxy pregnenolone [21-3H] substrate; format: biochemical; conditions: for IC50: recombinant human CYP17, first value of Human/Rat cell, read-out: Lyase IC 50 Human
Description: 1) Cvtochrome P450, 17-20 Lyase (CYP17-Lyase) Assay Development Using Recombinant Human CYP17 Enzyme and 17-α-Hydroxy Pregnenolone [21-3H] as the Substrate
Cytochrome P450, 17-α-Hydroxylase, 17-20 lyase (CYP17) is a multi functional enzyme that plays a key role in the biosynthesis of steroid hormones. […] In the hydroxylation reaction, it converts progesterone and pregnenolone to the corresponding hydroxylated products 17-α-hydroxy progesterone and 17-α-hydroxy pregnenolone. In the lyase reaction, it catalyzes the conversion of these hydroxylated substrates to Androstenedione and Dehydroepiandrosterone (DHEA) respectively. In the Cyp17 lyase assay described here, the conversion of 17-α-hydroxy pregnenolone to Dehydroepiandrosterone and acetic acid is being monitored.
The conversion of 17-α-hydroxy pregnenolone to Dehydroepiandrosterone is accompanied by the release of acetic acid. In the Cyp17 lyase assay, 17-α-hydroxy pregnenolone labeled with tritium (3H) at position 21 is used as the substrate. Chloroform extraction removes the radioactive steroids and acetic acid is taken into aqueous layer. The tritiated acetic acid released in the assay thus extracted is quantified to determine the enzyme activity.
Human Cyp 17 gene was cloned and expressed in Adenoviral expression system in A549 cell lines. The purified cell membrane preparations were used as the source for Human CYP17 enzyme. Total protein concentration: 8 mg/mL.
For routine screening, the assay was set up with 16 μg of enzyme in 50 μL reaction volume. 17α-hydroxy pregnenolone [21-3H] was added to a final concentration of […] NADPH is used at a final concentration of 4.2 mM. Total reaction volume was made up to 50 μL with 50 mM Phosphate buffer pH 7.5. The reaction mixture was incubated at room temperature for 90 minutes with gentle shaking. The reaction was stopped by the addition of 100 μl, of buffer. 500 μl, of 5% freshly prepared activated charcoal was added to the solution and mixed well by vortexing. The samples were centrifuged at 17568×g for 5 minutes. (14000 rpm). The supernatant was carefully transferred to fresh tube and 1.3 mL of scintillation fluid was added, mixed by vortexing.
The measurements were carried out in 2.0 mL Eppendorf™ tubes. Each tube was counted for 1 minute. The amount of tritiated acetic acid released is proportional to the lyase activity. Percent lyase activity in presence of inhibitor was calculated using the formula given below.
[formula] Sample: Enzyme reaction in presence of inhibitor. Positive control: Enzyme reaction without inhibitor but containing DMSO at 1% final concentration. Blank—Contains all reagents except enzyme. % Inhibition=100%−% Lyase activity
For IC50 determination, the % inhibition was plotted as a function of inhibitor concentration. The data was fitted to sigmoidal equation using Graphpad Prism® software IV to generate IC50 values.

Rat CYP 17 Lyase = Rat CYP 17 Lyase (Rattus norvegicus (Rat), UniProt P11715); assay: Rat CYP17 lyase model, rat testes microsomes; format: biochemical; conditions: substrate 0.5 μM, second value of Human/Rat cell, read-out: Lyase IC 50 Rat
Chain of Rat CYP 17 Lyase (P11715 whole entry): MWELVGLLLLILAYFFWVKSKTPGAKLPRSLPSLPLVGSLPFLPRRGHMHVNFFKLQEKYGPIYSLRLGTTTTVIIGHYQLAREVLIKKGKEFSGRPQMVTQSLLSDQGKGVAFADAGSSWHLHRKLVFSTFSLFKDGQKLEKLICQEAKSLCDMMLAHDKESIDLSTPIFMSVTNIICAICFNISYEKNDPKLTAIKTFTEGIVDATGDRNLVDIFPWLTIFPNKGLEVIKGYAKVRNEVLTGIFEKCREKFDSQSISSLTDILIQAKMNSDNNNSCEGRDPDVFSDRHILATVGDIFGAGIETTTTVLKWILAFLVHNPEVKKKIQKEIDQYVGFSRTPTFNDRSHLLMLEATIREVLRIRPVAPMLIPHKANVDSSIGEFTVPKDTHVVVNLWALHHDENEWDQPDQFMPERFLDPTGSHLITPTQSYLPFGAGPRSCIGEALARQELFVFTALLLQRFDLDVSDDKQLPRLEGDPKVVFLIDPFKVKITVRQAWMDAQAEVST
Method: For the Rat CYP 17 Lyase Model:
The same procedure described above was used but using rat testes microsomes as the source and with a substrate concentration of 0.5 μM.

Chain of Human CYP17 enzyme (Cytochrome P450, 17-20 lyase) (P05093 whole entry): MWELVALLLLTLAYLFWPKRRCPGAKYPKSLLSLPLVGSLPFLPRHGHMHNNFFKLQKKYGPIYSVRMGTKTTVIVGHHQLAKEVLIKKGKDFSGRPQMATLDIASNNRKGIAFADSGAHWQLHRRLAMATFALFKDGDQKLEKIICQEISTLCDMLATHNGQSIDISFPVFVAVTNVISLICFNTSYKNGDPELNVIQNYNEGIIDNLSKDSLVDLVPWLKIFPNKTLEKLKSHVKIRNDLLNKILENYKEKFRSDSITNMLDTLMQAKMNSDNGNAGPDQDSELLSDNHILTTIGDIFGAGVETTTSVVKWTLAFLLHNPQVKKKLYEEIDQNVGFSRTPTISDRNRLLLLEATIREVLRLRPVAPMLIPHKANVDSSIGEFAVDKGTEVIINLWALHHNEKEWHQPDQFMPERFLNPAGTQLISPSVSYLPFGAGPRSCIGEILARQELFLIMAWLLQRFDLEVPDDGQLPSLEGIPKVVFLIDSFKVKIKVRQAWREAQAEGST

| Structure (SMILES) | IC50 [1] [nM] | IC50 (Rat CYP 17 Lyase) [nM] | inhibition at 10 µM [1] [%] |
| --- | --- | --- | --- |
| O=C1N(c2ccnc(Cl)c2)CCN1c1cnccc1C1CC1 [Example 1A, 1-(2-chloropyridin-4-yl)-3-(4-cyclopropylpyridin-3-yl)imidazolidin-2-one] | 8 | 2.7 | – |
| O=C1N(c2ccnc(C(F)(F)F)c2)CCN1c1cnccc1C1CC1 [Example 2A, 1-(4-cyclopropylpyridin-3-yl)-3-(2-(trifluoromethyl)pyridin-4-yl)imidazolidin-2-one] | 9 | 1.1 | – |
| COc1cc(N2CCN(c3cnccc3C3CC3)C2=O)ccn1 [Example 9A, 1-(4-cyclopropylpyridin-3-yl)-3-(2-methoxypyridin-4-yl)imidazolidin-2-one] | 42 | 4.6 | – |
| O=C1N(c2cnccc2C2CC2)[C@@H]2C[C@@H]2N1c1ccnc(C(F)(F)F)c1 [Example 32A-II, (1R,5S)-2-(4-cyclopropylpyridin-3-yl)-4-(2-(trifluoromethyl)pyridin-4-yl)-2,4-diazabicyclo[3.1.0]hexan-3-one] | 6.9 | 3 | – |
| O=C1N(c2ccnc(C3CC3)c2)CCN1c1cnccc1C1CC1 [Example 39A, 1-(4-cyclopropylpyridin-3-yl)-3-(2-cyclopropylpyridin-4-yl)imidazolidin-2-one] | 12 | – | – |
| COc1cc(N2CCN(c3cnccc3C3CC3)C2=O)ncn1 [Example 40A, 1-(4-cyclopropylpyridin-3-yl)-3-(6-methoxypyrimidin-4-yl)imidazolidin-2-one] | 84 | – | – |
| Cc1cc(N2CCN(c3cnccc3C3CC3)C2=O)ncn1 [Example 41A, 1-(4-cyclopropylpyridin-3-yl)-3-(6-methylpyrimidin-4-yl)imidazolidin-2-one] | 70 | – | – |
| Cc1cc(N2CCN(c3cnccc3C3CC3)C2=O)ncc1F [Example 42A, 1-(4-cyclopropylpyridin-3-yl)-3-(5-fluoro-4-methylpyridin-2-yl)imidazolidin-2-one] | 22 | – | – |
| O=C1N(c2ccnc(C3CC3)n2)CCN1c1cnccc1C1CC1 [Example 43A, 1-(4-cyclopropylpyridin-3-yl)-3-(2-cyclopropylpyrimidin-4-yl)imidazolidin-2-one] | 36 | – | – |
| Cc1nccc(N2CCN(c3cnccc3C3CC3)C2=O)n1 [Example 44A, 1-(4-cyclopropylpyridin-3-yl)-3-(2-methylpyrimidin-4-yl)imidazolidin-2-one] | 397 | – | – |
| O=C1N(c2cc(Cl)nc(C(F)(F)F)n2)CCN1c1cnccc1C1CC1 [Example 45A, 1-(6-chloro-2-(trifluoromethyl)pyrimidin-4-yl)-3-(4-cyclopropylpyridin-3-yl) imidazolidin-2-one] | 10 | – | – |
| O=C1N(c2cc(Cl)nc(Cl)c2)CCN1c1cnccc1C1CC1 [Example 46A, 1-(4-cyclopropylpyridin-3-yl)-3-(2,6-dichloropyridin-4-yl)imidazolidin-2-one] | 1.9 | – | – |
| O=C1N(c2cc(Cl)nc(C3CC3)c2)CCN1c1cnccc1C1CC1 [Example 47A, 1-(2-chloro-6-cyclopropylpyridin-4-yl)-3-(4-cyclopropylpyridin-3-yl)imidazolidin-2-one] | 5.2 | – | – |
| O=C1N(c2cc(C3CC3)nc(C(F)(F)F)c2)CCN1c1cnccc1C1CC1 [Example 48A, 1-(2-cyclopropyl-6-(trifluoromethyl)pyridin-4-yl)-3-(4-cyclopropylpyridin-3-yl)imidazolidin-2-one] | 4.75 | – | – |
| O=C1N(c2cc(C(F)(F)F)nc(C(F)(F)F)c2)CCN1c1cnccc1C1CC1 [Example 49A, 1-(2,6-bis(trifluoromethyl)pyridin-4-yl)-3-(4-cyclopropylpyridin-3-yl)imidazolidin-2-one] | 6 | – | – |
| O=C1N(c2ccnc(C(F)(F)F)c2)CCN1c1c(C2CC2)ccnc1O [Example 50A, 1-(4-cyclopropyl-2-hydroxypyridin-3-yl)-3-(2-(trifluoromethyl)pyridin-4-yl)imidazolidin-2-one] | – | – | 51 |
